Earlier results on one molecule are cited in US20110196036A1, “USE OF BETAINE” (DANISCO A/S, priority 2008, published 2011).

The conditions of this data set: pure form; water and lower alcohols.

Consider `C[N+](C)(C)CC(=O)[O-]` [betaine, trimethylglycine], for which the solubility entry is “readily soluble in water and lower alcohols”.
